Source: BigSolDB 2.1

O=C(Nc1ccc(Cl)cc1)Nc1ccc(Cl)c(Cl)c1
solubility (mole fraction)
Conditions | 288.15 K | 293.15 K | 298.15 K | 303.15 K | 308.15 K | 313.15 K | 318.15 K
in 1,4-dioxane | 0.00103 | 0.00176 | 0.00239 | 0.00403 | 0.00658 | 0.00931 | 0.0141
in cyclohexane | 1.68e-07 | 2.73e-07 | 4.23e-07 | 7.31e-07 | 1.17e-06 | 1.82e-06 | 2.72e-06
